According to ChEMBL document CHEMBL1201862, “PubChem BioAssay data set” (2004):
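In this assay, cells in 96-well plates receive the compound at five concentrations for 48 hours. Endpoints are linearly interpolated between the surrounding concentrations. At the GI50, growth is halved.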 Calls of active or inactive are those of the source. No stated cut-off is given here; in the data, active = GI50 up to about 1.1 µM and inactive = higher.

What was measured:
Test in all cases: NCI tumour cell line growth inhibition, 48 h
DMS-114 = system: DMS-114
HL-60 = system: HL-60
KM-20L2 = system: KM-20L2
SK-MEL-5 = system: SK-MEL-5
DMS-273 = system: DMS-273
786-0 = system: 786-0
SN12C = system: SN12C
ACHN = system: ACHN
KM12 = system: KM12
UO-31 = system: UO-31
RPMI-8226 = system: RPMI-8226
NCI-H226 = system: NCI-H226
MOLT-4 = system: MOLT-4
U-251 = system: U-251
HOP-92 = system: HOP-92
SF-268 = system: SF-268
LXFL 529 = system: LXFL 529
NCI-H460 = system: NCI-H460
COLO 205 = system: COLO 205
NCI-H522 = system: NCI-H522
SNB-19 = system: SNB-19
OVCAR-3 = system: OVCAR-3
IGROV-1 = system: IGROV-1
OVCAR-4 = system: OVCAR-4
HCT-15 = system: HCT-15
HOP-62 = system: HOP-62
UACC-62 = system: UACC-62
XF498 = system: XF498
M14 = system: M14
K562 = system: K562
SK-MEL-2 = system: SK-MEL-2
EKVX = system: EKVX
OVCAR-5 = system: OVCAR-5
OVCAR-8 = system: OVCAR-8
M19-MEL = system: M19-MEL
SW-620 = system: SW-620
UACC-257 = system: UACC-257
RXF 393 = system: RXF 393
SR = system: SR
HT-29 = system: HT-29
A498 = system: A498
HCC 2998 = system: HCC 2998
SF-539 = system: SF-539
NCI-H23 = system: NCI-H23
TK-10 = system: TK-10
SNB-75 = system: SNB-75
SNB-78 = system: SNB-78
HCT-116 = system: HCT-116
A549 = system: A549
RXF 631 = system: RXF 631
SF-295 = system: SF-295
Malme-3M = system: Malme-3M
SK-OV-3 = system: SK-OV-3
HOP-18 = system: HOP-18
DLD-1 = system: DLD-1
CCRF-CEM = system: CCRF-CEM
SK-MEL-28 = system: SK-MEL-28
LOX IMVI = system: LOX IMVI
CAKI-1 = system: CAKI-1

Compound: C[n+]1c2ccccc2c(NC(CCC(N)=O)C(=O)O)c2ccccc21 (stereo not drawn)
- GI50 (DMS-114): > 100 µM (inactive)
- GI50 (HL-60): > 100 µM (inactive)
- GI50 (KM-20L2): > 100 µM (inactive)
- GI50 (SK-MEL-5): > 100 µM (inactive)
- GI50 (DMS-273): > 100 µM (inactive)
- GI50 (786-0): > 100 µM (inactive)
- GI50 (SN12C): > 100 µM (inactive)
- GI50 (ACHN): > 100 µM (inactive)
- GI50 (KM12): 73.5 µM (inactive)
- GI50 (UO-31): > 100 µM (inactive)
- GI50 (RPMI-8226): 21 µM (inactive)
- GI50 (NCI-H226): > 100 µM (inactive)
- GI50 (MOLT-4): > 100 µM (inactive)
- GI50 (U-251): > 100 µM (inactive)
- GI50 (HOP-92): > 100 µM (inactive)
- GI50 (SF-268): > 100 µM (inactive)
- GI50 (LXFL 529): > 100 µM (inactive)
- GI50 (NCI-H460): > 100 µM (inactive)
- GI50 (COLO 205): > 100 µM (inactive)
- GI50 (NCI-H522): > 100 µM (inactive)
- GI50 (SNB-19): > 100 µM (inactive)
- GI50 (OVCAR-3): > 100 µM (inactive)
- GI50 (IGROV-1): > 100 µM (inactive)
- GI50 (OVCAR-4): > 100 µM (inactive)
- GI50 (HCT-15): > 100 µM
- GI50 (HOP-62): > 100 µM (inactive)
- GI50 (UACC-62): > 100 µM (inactive)
- GI50 (XF498): > 100 µM (inactive)
- GI50 (M14): > 100 µM (inactive)
- GI50 (K562): > 100 µM (inactive)
- GI50 (SK-MEL-2): > 100 µM (inactive)
- GI50 (EKVX): > 100 µM (inactive)
- GI50 (OVCAR-5): > 100 µM (inactive)
- GI50 (OVCAR-8): > 100 µM (inactive)
- GI50 (M19-MEL): > 100 µM (inactive)
- GI50 (SW-620): > 100 µM (inactive)
- GI50 (UACC-257): > 100 µM (inactive)
- GI50 (RXF 393): > 100 µM (inactive)
- GI50 (SR): > 100 µM (inactive)
- GI50 (HT-29): > 100 µM (inactive)
- GI50 (A498): > 100 µM (inactive)
- GI50 (HCC 2998): > 100 µM (inactive)
- GI50 (SF-539): > 100 µM (inactive)
- GI50 (NCI-H23): > 100 µM (inactive)
- GI50 (TK-10): > 100 µM (inactive)
- GI50 (SNB-75): > 100 µM (inactive)
- GI50 (SNB-78): > 100 µM (inactive)
- GI50 (HCT-116): > 100 µM (inactive)
- GI50 (A549): > 100 µM (inactive)
- GI50 (RXF 631): > 100 µM (inactive)
- GI50 (SF-295): > 100 µM (inactive)
- GI50 (Malme-3M): > 100 µM (inactive)
- GI50 (SK-OV-3): > 100 µM (inactive)
- GI50 (HOP-18): > 100 µM (inactive)
- GI50 (DLD-1): > 100 µM (inactive)

Compound: Cc1ccccc1C1OC(=O)c2ccc3ccccc3c21 (stereo not drawn)
- GI50 (CCRF-CEM): 4.21 µM (inactive)
- GI50 (SK-MEL-28): 3.43 µM (inactive)
- GI50 (DMS-114): 4.67 µM (inactive)
- GI50 (HL-60): 2.79 µM (inactive)
- GI50 (LOX IMVI): 2.57 µM (inactive)
- GI50 (KM-20L2): 4.16 µM (inactive)
- GI50 (SK-MEL-5): 3.53 µM (inactive)
- GI50 (DMS-273): 3.5 µM (inactive)
- GI50 (786-0): 4.57 µM (inactive)
- GI50 (SN12C): 5.47 µM (inactive)
- GI50 (ACHN): 4.63 µM (inactive)
- GI50 (KM12): 5.6 µM (inactive)
- GI50 (UO-31): 2.77 µM (inactive)
- GI50 (RPMI-8226): 1.61 µM (inactive)
- GI50 (NCI-H226): 4.75 µM (inactive)
- GI50 (MOLT-4): 2.23 µM (inactive)
- GI50 (U-251): 3.57 µM (inactive)
- GI50 (HOP-92): 10.8 µM (inactive)
- GI50 (SF-268): 6.97 µM (inactive)
- GI50 (LXFL 529): 3.38 µM (inactive)
- GI50 (NCI-H460): 3.23 µM (inactive)
- GI50 (COLO 205): 1.37 µM (inactive)
- GI50 (NCI-H522): 1.82 µM (inactive)
- GI50 (SNB-19): 8.87 µM (inactive)
- GI50 (OVCAR-3): 3.65 µM (inactive)
- GI50 (IGROV-1): 5 µM (inactive)
- GI50 (OVCAR-4): 9.51 µM (inactive)
- GI50 (HCT-15): 2.93 µM
- GI50 (HOP-62): 0.442 µM (active)
- GI50 (UACC-62): 2.94 µM (inactive)
- GI50 (XF498): 2.31 µM (inactive)
- GI50 (M14): 2.97 µM (inactive)
- GI50 (K562): 3.07 µM (inactive)
- GI50 (SK-MEL-2): 2.25 µM (inactive)
- GI50 (EKVX): 7.4 µM (inactive)
- GI50 (OVCAR-5): 8.57 µM (inactive)
- GI50 (OVCAR-8): 3.12 µM (inactive)
- GI50 (M19-MEL): 3.27 µM (inactive)
- GI50 (SW-620): 4.52 µM (inactive)
- GI50 (UACC-257): 4.62 µM (inactive)
- GI50 (RXF 393): 2.59 µM (inactive)
- GI50 (SR): 0.769 µM (active)
- GI50 (HT-29): 4.22 µM (inactive)
- GI50 (A498): 2.36 µM (inactive)
- GI50 (CAKI-1): 6.21 µM (inactive)
- GI50 (HCC 2998): 4 µM (inactive)
- GI50 (SF-539): 3.27 µM (inactive)
- GI50 (NCI-H23): 5.71 µM (inactive)
- GI50 (TK-10): 7 µM (inactive)
- GI50 (SNB-75): 3.55 µM (inactive)
- GI50 (SNB-78): 6.5 µM (inactive)
- GI50 (HCT-116): 2.52 µM (inactive)
- GI50 (A549): 5.48 µM (inactive)
- GI50 (RXF 631): 0.607 µM (active)
- GI50 (SF-295): 7.35 µM (inactive)
- GI50 (Malme-3M): 5.56 µM (inactive)
- GI50 (SK-OV-3): 2.52 µM (inactive)
- GI50 (HOP-18): 7.64 µM (inactive)
- GI50 (DLD-1): 3.37 µM (inactive)

Compound: Brc1ccc2c(C3CN[C@@H](c4c[nH]c5cc(Br)ccc45)CN3)c[nH]c2c1 (stereo partly drawn)
- GI50 (CCRF-CEM): 2.65 µM (inactive)
- GI50 (SK-MEL-28): 11.3 µM (inactive)
- GI50 (DMS-114): 1.95 µM (inactive)
- GI50 (HL-60): 2.42 µM (inactive)
- GI50 (LOX IMVI): 2.61 µM (inactive)
- GI50 (KM-20L2): 1.98 µM (inactive)
- GI50 (SK-MEL-5): 3.67 µM (inactive)
- GI50 (DMS-273): 2.26 µM (inactive)
- GI50 (786-0): 2.89 µM (inactive)
- GI50 (SN12C): 5.25 µM (inactive)
- GI50 (ACHN): 3.46 µM (inactive)
- GI50 (KM12): 1.72 µM (inactive)
- GI50 (UO-31): 5.68 µM (inactive)
- GI50 (RPMI-8226): 1.89 µM (inactive)
- GI50 (NCI-H226): 2.13 µM (inactive)
- GI50 (MOLT-4): 1.44 µM (inactive)
- GI50 (U-251): 5.37 µM (inactive)
- GI50 (HOP-92): 1.66 µM (inactive)
- GI50 (SF-268): 4.78 µM (inactive)
- GI50 (LXFL 529): 2.13 µM (inactive)
- GI50 (NCI-H460): 1.3 µM (inactive)
- GI50 (COLO 205): 1.9 µM (inactive)
- GI50 (NCI-H522): 2.54 µM (inactive)
- GI50 (SNB-19): 9.46 µM (inactive)
- GI50 (OVCAR-3): 6.03 µM (inactive)
- GI50 (IGROV-1): 5.65 µM (inactive)
- GI50 (OVCAR-4): 3.31 µM (inactive)
- GI50 (HCT-15): 3.61 µM
- GI50 (HOP-62): 3.94 µM (inactive)
- GI50 (UACC-62): 4.37 µM (inactive)
- GI50 (XF498): 6.84 µM (inactive)
- GI50 (M14): 2.55 µM (inactive)
- GI50 (K562): 1.65 µM (inactive)
- GI50 (SK-MEL-2): 3.02 µM (inactive)
- GI50 (EKVX): 8.97 µM (inactive)
- GI50 (OVCAR-5): 2.48 µM (inactive)
- GI50 (OVCAR-8): 4.23 µM (inactive)
- GI50 (M19-MEL): 6.78 µM (inactive)
- GI50 (SW-620): 2.48 µM (inactive)
- GI50 (UACC-257): 11.1 µM (inactive)
- GI50 (RXF 393): 1.55 µM (inactive)
- GI50 (SR): 0.968 µM (active)
- GI50 (HT-29): 2.79 µM (inactive)
- GI50 (A498): 1.79 µM (inactive)
- GI50 (CAKI-1): 10.4 µM (inactive)
- GI50 (HCC 2998): 2 µM (inactive)
- GI50 (SF-539): 3.99 µM (inactive)
- GI50 (NCI-H23): 2.34 µM (inactive)
- GI50 (TK-10): 8.04 µM (inactive)
- GI50 (SNB-75): 16.1 µM (inactive)
- GI50 (SNB-78): 10.4 µM (inactive)
- GI50 (HCT-116): 1.69 µM (inactive)
- GI50 (A549): 2.8 µM (inactive)
- GI50 (RXF 631): 2.67 µM (inactive)
- GI50 (SF-295): 3.4 µM (inactive)
- GI50 (Malme-3M): 12.2 µM (inactive)
- GI50 (SK-OV-3): 6.14 µM (inactive)
- GI50 (HOP-18): 11.9 µM (inactive)
- GI50 (DLD-1): 3.03 µM (inactive)
